The values that follow are results of earlier work, collected in patent publication US9717795B2, “HPPH lyophilized powder injection for injection and preparation method thereof” (ZHEJIANG HISUN PHARMACEUTICAL CO., LTD, priority 2013, dated 2017).

As for HPPH, the solubility in water entry is given as “poor solubility in water”.
